Laboratory results reported in ChEMBL document CHEMBL6083208, “Integrating amino acids into Bcr-Abl inhibitors: design, synthesis, biological evaluation, and in silico studies” (RSC Med Chem, 2024).
Calls of active or inactive are those of the source. The rule behind the calls is not given here.

Columns and labels:
[1] = target: T1, Bcr/Abl fusion protein (Homo sapiens) (UniProt P00519+P11274); experiment: Inhibition of wild type BCR-ABL in human K562 cells assessed as inhibition of STAT5 phosphorylation level at 20 uM measured after 48 hrs by Western blot analysis; type: cell-based
K562 [2] = experiment: Induction of apoptosis in human K562 cells assessed as necrotic cells at 1 uM measured after 48 hrs by annexin-V/FITC and propidium iodide double staining based flow cytometry analysis (reference value: 1.05%); type: functional
K562 [3] = experiment: Induction of apoptosis in human K562 cells assessed as early apoptotic cells at 10 uM measured after 48 hrs by annexin-V/FITC and propidium iodide double staining based flow cytometry analysis (reference value: 3.57%); type: functional
BaF3 [4] = experiment: Antiproliferative activity against mouse BaF3 cells harbouring Bcr-Abl T315I assessed of cell viability at 30 uM incubated for 72 hrs by Celltiter-glo luminescent cell viability assay relative to control; type: functional
K562 [5] = experiment: Induction of apoptosis in human K562 cells assessed as viable cells at 15 uM measured after 48 hrs by annexin-V/FITC and propidium iodide double staining based flow cytometry analysis (reference value: 92.67%); type: functional; details: read-out: Activity
BaF3 [6] = experiment: Antiproliferative activity against mouse BaF3 cells harbouring Bcr-Abl T315I assessed of cell viability at 2 uM incubated for 72 hrs by Celltiter-glo luminescent cell viability assay relative to control; type: functional
K562 [7] = experiment: Induction of apoptosis in human K562 cells assessed as late apoptotic cells at 1 uM measured after 48 hrs by annexin-V/FITC and propidium iodide double staining based flow cytometry analysis (reference value: 2.72%); type: functional
Bcr/Abl fusion protein = Bcr/Abl fusion protein (Homo sapiens, UniProt P00519); experiment: Inhibition of wild type Bcr-Abl (unknown origin) using Abltide as substrate incubated for 1 hr by luminescence based ADP-glo assay; type: protein assay
K562 [8] = experiment: Induction of apoptosis in human K562 cells assessed as necrotic cells at 15 uM measured after 48 hrs by annexin-V/FITC and propidium iodide double staining based flow cytometry analysis (reference value: 1.05%); type: functional
K562 [9] = experiment: Induction of apoptosis in human K562 cells assessed as viable cells at 10 uM measured after 48 hrs by annexin-V/FITC and propidium iodide double staining based flow cytometry analysis (reference value: 92.67%); type: functional; details: read-out: Activity
K562 [10] = experiment: Induction of apoptosis in human K562 cells assessed as viable cells at 1 uM measured after 48 hrs by annexin-V/FITC and propidium iodide double staining based flow cytometry analysis (reference value: 92.67%); type: functional; details: read-out: Activity
K562 [11] = experiment: Induction of apoptosis in human K562 cells assessed as early apoptotic cells at 1 uM measured after 48 hrs by annexin-V/FITC and propidium iodide double staining based flow cytometry analysis (reference value: 3.57%); type: functional
K562 [12] = experiment: Induction of apoptosis in human K562 cells assessed as early apoptotic cells at 15 uM measured after 48 hrs by annexin-V/FITC and propidium iodide double staining based flow cytometry analysis (reference value: 3.57%); type: functional
[13] = Inhibition of Bcr-Abl T315Ialpha mutant (unknown origin) using Abltide as substrate incubated for 1 hr by luminescence based ADP-glo assay; parameters: species or system Homo sapiens
BaF3 [14] = experiment: Antiproliferative activity against mouse BaF3 cells harbouring Bcr-Abl T315I assessed of cell viability at 10 uM incubated for 72 hrs by Celltiter-glo luminescent cell viability assay relative to control; type: functional
THP-1 = experiment: Antiproliferative activity against human THP-1 cells after 48 hrs by MTT assay; type: functional; parameters: concentration or dose not given beside the values
HEK293 = experiment: Antiproliferative activity against HEK293 cells after 48 hrs by MTT assay; type: toxicity, cell-based; parameters: concentration or dose not given beside the values; details: human, hek293, 48 h
K562 [15] = experiment: Induction of apoptosis in human K562 cells assessed as late apoptotic cells at 10 uM measured after 48 hrs by annexin-V/FITC and propidium iodide double staining based flow cytometry analysis (reference value: 2.72%); type: functional
[16] = target: T1, Bcr/Abl fusion protein (Homo sapiens); experiment: Inhibition of wild type BCR-ABL in human K562 cells assessed as inhibition of STAT5 phosphorylation level measured after 48 hrs by Western blot analysis; type: cell-based; details: dose 0.1-15 µM
K562 [17] = experiment: Induction of apoptosis in human K562 cells assessed as late apoptotic cells at 15 uM measured after 48 hrs by annexin-V/FITC and propidium iodide double staining based flow cytometry analysis (reference value: 2.72%); type: functional
K562 [18] = experiment: Induction of apoptosis in human K562 cells assessed as necrotic cells at 10 uM measured after 48 hrs by annexin-V/FITC and propidium iodide double staining based flow cytometry analysis (reference value: 1.05%); type: functional
K562 [19] = experiment: Induction of cell cycle arrest in human K562 cells assessed as increase in accumulation of cells at G0/G1 phase at 1 to 20 uM measured after 48 hrs by PI staining based flow cytometry analysis; type: functional; details: dose 1-20 µM
K562 [20] = experiment: cells; details: Homo sapiens, K562, 48 h
[21] = target: T1, Bcr/Abl fusion protein (Homo sapiens); experiment: Inhibition of wild type BCR-ABL in human K562 cells assessed as inhibition of Bcr-Abl phosphorylation level at 20 uM measured after 48 hrs by Western blot analysis; type: cell-based
K562 [22] = experiment: Induction of cell cycle arrest in human K562 cells assessed as increase in accumulation of cells at G2/M phase at 1 to 20 uM measured after 48 hrs by PI staining based flow cytometry analysis; type: functional; details: dose 1-20 µM
[23] = target: T1, Bcr/Abl fusion protein (Homo sapiens); experiment: Inhibition of wild type BCR-ABL in human K562 cells assessed as inhibition of Bcr-Abl phosphorylation level at 1 uM measured after 48 hrs by Western blot analysis; type: cell-based
K562 [24] = experiment: Induction of cell cycle arrest in human K562 cells assessed as reduction in accumulation of cells at S phase at 1 to 20 uM measured after 48 hrs by PI staining based flow cytometry analysis; type: functional; details: dose 1-20 µM

Sequence of Bcr/Abl fusion protein (P00519 whole entry, the tested form may be a part): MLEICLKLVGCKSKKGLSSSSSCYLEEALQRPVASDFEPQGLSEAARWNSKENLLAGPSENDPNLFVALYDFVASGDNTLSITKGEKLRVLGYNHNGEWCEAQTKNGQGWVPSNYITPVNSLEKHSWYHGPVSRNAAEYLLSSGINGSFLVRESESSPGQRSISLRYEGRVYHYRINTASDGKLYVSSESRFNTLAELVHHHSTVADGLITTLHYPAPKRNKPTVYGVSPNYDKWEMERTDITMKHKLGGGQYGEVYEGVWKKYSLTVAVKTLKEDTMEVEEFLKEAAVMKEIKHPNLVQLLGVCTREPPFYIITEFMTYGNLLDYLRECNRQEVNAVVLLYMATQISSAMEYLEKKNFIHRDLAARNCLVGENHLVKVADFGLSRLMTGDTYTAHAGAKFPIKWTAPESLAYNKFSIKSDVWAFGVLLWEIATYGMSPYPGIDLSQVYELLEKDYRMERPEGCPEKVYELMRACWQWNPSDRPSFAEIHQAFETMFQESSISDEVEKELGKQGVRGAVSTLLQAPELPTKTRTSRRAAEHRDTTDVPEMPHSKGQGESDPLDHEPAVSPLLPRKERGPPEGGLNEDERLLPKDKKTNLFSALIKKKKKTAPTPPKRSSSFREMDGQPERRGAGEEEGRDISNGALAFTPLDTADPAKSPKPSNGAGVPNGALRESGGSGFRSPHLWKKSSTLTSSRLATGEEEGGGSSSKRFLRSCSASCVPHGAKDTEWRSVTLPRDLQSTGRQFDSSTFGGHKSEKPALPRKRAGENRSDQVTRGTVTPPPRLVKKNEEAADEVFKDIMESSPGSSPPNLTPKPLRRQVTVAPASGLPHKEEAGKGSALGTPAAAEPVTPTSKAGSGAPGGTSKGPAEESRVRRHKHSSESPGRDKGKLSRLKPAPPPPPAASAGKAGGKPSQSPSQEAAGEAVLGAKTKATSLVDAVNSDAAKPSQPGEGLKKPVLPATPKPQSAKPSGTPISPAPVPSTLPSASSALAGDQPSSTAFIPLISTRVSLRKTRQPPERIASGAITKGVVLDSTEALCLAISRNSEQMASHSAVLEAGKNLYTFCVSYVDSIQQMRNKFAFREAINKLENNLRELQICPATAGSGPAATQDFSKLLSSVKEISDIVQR
Sequence of Bcr/Abl fusion protein (P11274 whole entry, further chain, the tested form may be a part): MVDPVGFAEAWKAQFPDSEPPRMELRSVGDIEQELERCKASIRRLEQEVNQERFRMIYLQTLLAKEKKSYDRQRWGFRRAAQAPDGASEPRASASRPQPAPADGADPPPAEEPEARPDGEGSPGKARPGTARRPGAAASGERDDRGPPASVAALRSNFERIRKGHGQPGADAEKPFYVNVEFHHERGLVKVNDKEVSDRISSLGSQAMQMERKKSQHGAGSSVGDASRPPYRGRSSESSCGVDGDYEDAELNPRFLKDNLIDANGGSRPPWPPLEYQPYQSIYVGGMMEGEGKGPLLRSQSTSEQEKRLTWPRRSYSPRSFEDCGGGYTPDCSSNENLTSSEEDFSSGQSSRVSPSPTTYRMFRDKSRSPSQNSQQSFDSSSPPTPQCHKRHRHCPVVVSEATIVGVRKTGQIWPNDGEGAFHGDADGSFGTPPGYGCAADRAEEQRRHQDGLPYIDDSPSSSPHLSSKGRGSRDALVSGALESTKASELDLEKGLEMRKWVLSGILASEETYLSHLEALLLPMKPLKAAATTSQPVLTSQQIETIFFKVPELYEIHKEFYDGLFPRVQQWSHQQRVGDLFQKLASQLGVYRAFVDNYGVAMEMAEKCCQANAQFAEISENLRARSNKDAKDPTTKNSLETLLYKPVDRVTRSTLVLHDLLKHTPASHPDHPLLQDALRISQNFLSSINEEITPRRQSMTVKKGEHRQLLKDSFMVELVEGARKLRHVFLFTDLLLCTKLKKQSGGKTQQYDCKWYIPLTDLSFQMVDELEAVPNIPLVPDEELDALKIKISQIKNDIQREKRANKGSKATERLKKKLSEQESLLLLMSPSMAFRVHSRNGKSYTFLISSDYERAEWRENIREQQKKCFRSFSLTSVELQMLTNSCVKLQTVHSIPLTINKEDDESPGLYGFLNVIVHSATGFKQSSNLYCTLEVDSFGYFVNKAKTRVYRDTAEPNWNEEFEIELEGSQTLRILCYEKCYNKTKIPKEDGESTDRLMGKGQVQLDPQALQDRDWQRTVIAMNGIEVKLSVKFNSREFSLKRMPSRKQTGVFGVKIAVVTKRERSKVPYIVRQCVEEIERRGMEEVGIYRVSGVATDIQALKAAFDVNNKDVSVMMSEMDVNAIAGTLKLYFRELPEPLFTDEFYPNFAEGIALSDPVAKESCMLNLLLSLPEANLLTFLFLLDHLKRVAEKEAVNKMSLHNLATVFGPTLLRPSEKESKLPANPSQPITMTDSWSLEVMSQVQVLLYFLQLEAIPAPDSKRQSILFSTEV
T1 sequence (P00519 whole entry, looked up, the tested form may be a part): as the sequence (P00519 whole entry, the tested form may be a part) above
T1 sequence (P11274 whole entry, looked up, the tested form may be a part): as the sequence (P11274 whole entry, further chain, the tested form may be a part) above

Compound | inhibition at 30 µM (BaF3 [4]) | inhibition at 2 µM (BaF3 [6]) | IC50 (Bcr/Abl fusion protein) | IC50 [13] | inhibition at 10 µM (BaF3 [14]) | Activity (THP-1) | Activity (HEK293) | IC50 (K562 [20]) | also measured
CC(C)(C)[C@H](NC(=O)c1cccc(-c2ccc(NS(C)(=O)=O)nc2)c1)C(=O)Nc1ccc(Cl)c(C(F)(F)F)c1 | 99.6% | 10% | 1.44 nM | 48 nM | 100% | 65% | 100% | 0.61 nM | inhibition [1]: Active; Activity (K562 [2]): 0.17%; Activity (K562 [3]): 8.2%; viability at 15 µM (K562 [5]): 82.5%; Activity (K562 [7]): 4.45%; Activity (K562 [8]): 0.28%; viability at 10 µM (K562 [9]): 82.8%; viability at 1 µM (K562 [10]): 88.2%; Activity (K562 [11]): 7.15%; Activity (K562 [12]): 8.69%; Activity (K562 [15]): 8.64%; inhibition [16]: Dose-dependent-effect; Activity (K562 [17]): 8.48%; Activity (K562 [18]): 0.4%; Activity (K562 [19]): Active; inhibition [21]: Active; Activity (K562 [22]): Active; inhibition [23]: Active; Activity (K562 [24]): Active
CC(C)(C)[C@H](NC(=O)c1ccc(-c2cncc(C(=O)NC3CC3)c2)cc1)C(=O)Nc1ccc(Cl)c(C(F)(F)F)c1 | 100% | 5.84% | 8.02 nM | 140 nM | 42.6% | 100% | 91% | 3.34 nM | 
CC(C)(C)C(=O)Nc1ccc(-c2cccc(C(=O)N[C@H](C(=O)Nc3ccc(Cl)c(C(F)(F)F)c3)C(C)(C)C)c2)cn1 | 98.1% | 99.9% | 26.5 nM | 351 nM | 100% | 73% | 81% | 0.97 nM | 
CC(=O)Nc1ccc(-c2cccc(C(=O)N[C@@H](CO)C(=O)Nc3ccc(Cl)c(C(F)(F)F)c3)c2)cn1 | 90% | -1.17% | 0.33 nM | 66 nM | 24.5% | 100% | 85% | 0.85 nM | 
CC(=O)Nc1cc(-c2ccc(C(=O)N[C@H](C(=O)Nc3ccc(Cl)c(C(F)(F)F)c3)C(C)(C)C)cc2)ccn1 | 99.8% | 4.64% | 9.9 nM | 180 nM | 31.8% | 68% | 88% | 3.31 nM | 
CC(C)(C)[C@H](NC(=O)c1ccc(-c2ccnc(NS(C)(=O)=O)c2)cc1)C(=O)Nc1ccc(Cl)c(C(F)(F)F)c1 | 100% | 8.95% | 3.93 nM | 66.9 nM | 36.1% | 100% | 81% | 0.93 nM | 
Nc1ccc(-c2cccc(C(=O)N[C@@H](CO)C(=O)Nc3ccc(Cl)c(C(F)(F)F)c3)c2)cn1 | 88.3% | -0.03% | 1.6 nM | 148 nM | 15.2% | 84% | 93% | 2.13 nM | 
CC(C)(C)OC[C@H](NC(=O)c1ccc(-c2ccnc(NS(C)(=O)=O)c2)cc1)C(=O)Nc1ccc(Cl)c(C(F)(F)F)c1 | 96.7% | 7.49% | 0.33 nM | 51 nM | 27.6% | 94% | 93% | 0.19 nM | 
CC(C)(C)OC[C@H](NC(=O)c1cccc(-c2ccc(NS(C)(=O)=O)nc2)c1)C(=O)Nc1ccc(Cl)c(C(F)(F)F)c1 | 96.7% | 0.62% | 10.6 nM | 138 nM | 99.9% | 77% | 88% | 2.59 nM | 
